“And” between values parts separate entries of the source, which are not always exact repeats. Equal entries are not always repeated.
Assays:
Rattus norvegicus [1] = test: Anti-inflammatory activity in Wistar rat assessed as inhibition of carrageenan-induced paw edema at 10 mg/kg, ip pretreated for 1 hr followed by carrageenan challenge and measured after 2 hr relative to control (reference value: 0.00 +/-0.03 %); type: functional; details: time 3 hrs
Rattus norvegicus [2] = test: Anti-inflammatory activity in Wistar rat assessed as inhibition of carrageenan-induced paw edema at 10 mg/kg, ip pretreated for 1 hr followed by carrageenan challenge and measured after 3 hr relative to control (reference value: 0.00 +/-0.1 %); type: functional; details: time 4 hrs
Rattus norvegicus [3] = test: Anti-inflammatory activity in Wistar rat assessed as inhibition of carrageenan-induced paw edema at 10 mg/kg, ip pretreated for 1 hr followed by carrageenan challenge and measured after 1 hr relative to control (reference value: 0.00 +/-0.02 %); type: functional; details: time 2 hrs
Rattus norvegicus [4] = test: Antiinflammatory activity in Wistar rat model of carrageenan-induced paw edema assessed as reduction in thickness of paw edema at 10 mg/kg, ip pretreated for 1 hr followed by carrageenan challenge and measured after 24 hrs (reference value: 0.83 +/-0.08 mm); type: functional; details: time 25 hrs
Rattus norvegicus [5] = test: Anti-inflammatory activity in Wistar rat assessed as inhibition of carrageenan-induced paw edema at 10 mg/kg, ip pretreated for 1 hr followed by carrageenan challenge and measured after 4 hr relative to control (reference value: 0.00 +/-0.4 %); type: functional; details: time 5 hrs
Rattus norvegicus [6] = test: Anti-inflammatory activity in Wistar rat assessed as inhibition of carrageenan-induced paw edema at 10 mg/kg, ip pretreated for 1 hr followed by carrageenan challenge and measured after 24 hr relative to control (reference value: 0.00 +/-0.3 %); type: functional; details: time 25 hrs
Rattus norvegicus [7] = test: Antiinflammatory activity in Wistar rat model of carrageenan-induced paw edema assessed as reduction in thickness of paw edema at 10 mg/kg, ip pretreated for 1 hr followed by carrageenan challenge and measured after 3 hrs (reference value: 1.79 +/-0.07 mm); type: functional; details: time 4 hrs
Splenocyte [8] = test: Immunomodulatory activity in Swiss albino mouse splenocytes assessed as cell viability at 10 uM by measuring stimulation index incubated for 72 hrs in presence of mitogenic stimulus phytohaemagglutinin by MTT assay (reference value: 1.00 +/- 0.24); type: functional
Rattus norvegicus [9] = test: Antiinflammatory activity in Wistar rat model of carrageenan-induced paw edema assessed as reduction in thickness of paw edema at 10 mg/kg, ip pretreated for 1 hr followed by carrageenan challenge and measured after 4 hrs (reference value: 1.40 +/-0.10 mm); type: functional; details: time 5 hrs
Salmonella typhimurium = test: Antibacterial activity against Salmonella typhimurium ATCC 19430 incubated for 18 hrs by agar dilution assay; type: functional, Salmonella enterica subsp. enterica serovar Typhimurium; details: Salmonella enterica
Rattus norvegicus [10] = test: Antiinflammatory activity in Wistar rat model of carrageenan-induced paw edema assessed as reduction in thickness of paw edema at 10 mg/kg, ip pretreated for 1 hr followed by carrageenan challenge and measured after 2 hrs (reference value: 2.06 +/-0.09 mm); type: functional; details: time 3 hrs
Rattus norvegicus [11] = test: Anti-inflammatory activity in Wistar rat assessed as inhibition of carrageenan-induced paw edema at 10 mg/kg, ip pretreated for 1 hr followed by carrageenan challenge and measured after 4 hr relative to indomethacin; type: functional; details: time 5 hrs
Rattus norvegicus [12] = test: Antiinflammatory activity in Wistar rat model of carrageenan-induced paw edema assessed as reduction in thickness of paw edema at 10 mg/kg, ip pretreated for 1 hr followed by carrageenan challenge and measured after 1 hr (reference value: 2.41 +/-0.05 mm); type: functional; details: time 1 hr after carrageenan
Streptococcus pyogenes = test: Antibacterial activity against Streptococcus pyogenes ATCC 19615 incubated for 18 hrs by agar dilution method; type: functional
Pseudomonas aeruginosa = test: Antibacterial activity against Pseudomonas aeruginosa ATCC 27853 incubated for 18 hrs by agar dilution assay; type: functional
Candida albicans = test: Antifungal activity against Candida albicans incubated for 18 to 24 hrs by CLSI method; type: functional; details: time 18-24 hrs
Splenocyte [13] = test: Immunomodulatory activity in Swiss albino mouse splenocytes assessed as cell viability at 10 uM by measuring inhibition of stimulation index incubated for 72 hrs in presence of mitogenic stimulus phytohaemagglutinin by MTT assay relative to indomethacin; type: functional; details: read-out: Activity
Staphylococcus aureus = test: Antibacterial activity against Staphylococcus aureus ATCC 25923 incubated for 18 hrs by agar dilution method; type: functional
Peritoneal macrophage [14] = test: Antiinflammatory activity in […] mouse Peritoneal macrophages assessed as reduction in LPS-induced NO production by measuring reduction in stimulation index at 10 uM preincubated for 1 hr followed by LPS stimulation measured after 24 hrs by Griess method (reference value: 27.31 +/- 2.56 uM); type: functional; details: time 25 hrs
Peritoneal macrophage [15] = test: Antiinflammatory activity in […] mouse Peritoneal macrophages assessed as inhibition of LPS-induced NO production at 10 uM preincubated for 1 hr followed by LPS stimulation measured after 24 hrs by Griess method relative to control (reference value: 0.0 %); type: functional; design: scale not given: the % may be the effect or the level left; details: time 25 hrs

Structure (SMILES)	inhibition in vivo at 10 mg/kg (Rattus norvegicus [1]) [%]	inhibition in vivo at 10 mg/kg (Rattus norvegicus [2]) [%]	inhibition in vivo at 10 mg/kg (Rattus norvegicus [3]) [%]	Activity (Rattus norvegicus [4]) [mm]	inhibition in vivo at 10 mg/kg (Rattus norvegicus [5]) [%]	inhibition in vivo at 10 mg/kg (Rattus norvegicus [6]) [%]	Activity (Rattus norvegicus [7]) [mm]	Activity_index (Splenocyte [8])	Activity (Rattus norvegicus [9]) [mm]	MIC (Salmonella typhimurium)	Activity (Rattus norvegicus [10]) [mm]	inhibition in vivo at 10 mg/kg (Rattus norvegicus [11]) [%]	Activity (Rattus norvegicus [12]) [mm]	MIC (Streptococcus pyogenes)	MIC (Pseudomonas aeruginosa)	MIC (Candida albicans)	viability at 10 µM (Splenocyte [13]) [%]	MIC (Staphylococcus aureus)	Activity (Peritoneal macrophage [14]) [µM]	Activity (Peritoneal macrophage [15]) [%]
COc1cc(/C=C/C(=O)/C=C(O)/C=C/c2ccc(OC(=O)[C@H](CCC(N)=O)NC(=O)OCc3ccccc3)c(OC)c2)ccc1OC(=O)[C@H](CCC(N)=O)NC(=O)OCc1ccccc1	47	45	51	0.8	44	4	0.99	2.37	0.78	0.5 µg/mL and 0.56 µM	1.09	51	1.18	0.125 µg/mL and 0.14 µM	1 µg/mL and 1.12 µM	0.5 µg/mL and 0.56 µM	51.1	0.5 µg/mL and 0.56 µM		
COc1cc(/C=C/C(=O)/C=C(O)/C=C/c2ccc(OC(=O)[C@H](C)NC(=O)OCc3ccccc3)c(OC)c2)ccc1OC(=O)[C@H](C)NC(=O)OCc1ccccc1	23	22	56	0.83	12	0	1.4	2.7	1.23	0.5 µg/mL and 0.642 µM	1.59	14	1.05	0.125 µg/mL and 0.161 µM	2 µg/mL and 2.57 µM	2 µg/mL and 2.57 µM	44.9	0.25 µg/mL and 0.321 µM	24.89	8.86
COc1cc(/C=C/C(=O)/C=C(O)/C=C/c2ccc(OC(=O)[C@H](Cc3ccccc3)NC(=O)OCc3ccccc3)c(OC)c2)ccc1OC(=O)[C@H](Cc1ccccc1)NC(=O)OCc1ccccc1	24	9	59	0.82	5	1	1.63	2.91	1.38	0.125 µg/mL and 0.134 µM	1.56	6	1	0.125 µg/mL and 0.134 µM	0.25 µg/mL and 0.269 µM	2 µg/mL and 2.15 µM	41.5	0.125 µg/mL and 0.134 µM	26.33	3.6
COc1cc(/C=C/C(=O)/C=C(O)/C=C/c2ccc(OC(=O)CNC(=O)OCc3ccccc3)c(OC)c2)ccc1OC(=O)CNC(=O)OCc1ccccc1	32	37	64	0.83	34	0	1.13	2.64	0.92	0.5 µg/mL and 0.666 µM	1.41	39	0.87	0.125 µg/mL and 0.166 µM	1 µg/mL and 1.33 µM	0.5 µg/mL and 0.666 µM	45.8	0.125 µg/mL and 0.166 µM	24.55	10.11
COc1cc(/C=C/C(=O)/C=C(O)/C=C/c2ccc(OC(=O)[C@H](CC(C)C)NC(=O)OCc3ccccc3)c(OC)c2)ccc1OC(=O)[C@H](CC(C)C)NC(=O)OCc1ccccc1	10	10	34	0.82	11	1	1.61	2.83	1.25	0.25 µg/mL and 0.29 µM	1.85	13	1.59	0.125 µg/mL and 0.145 µM	0.125 µg/mL and 0.145 µM	0.5 µg/mL and 0.579 µM	42.8	0.125 µg/mL and 0.145 µM	26.06	4.57

Reference: ChEMBL document CHEMBL4765295, “Synthesis, pharmacological profile and 2D-QSAR studies of curcumin-amino acid conjugates as potential drug candidates” (Eur J Med Chem, 2020)
